Test results as given in patent US11007270B2, “Polymer-semaxanib moiety conjugates” (Nektar Therapeutics, priority 2010, dated 2021).

Experiments:
RET = RET (Homo sapiens, UniProt P07949); test: RET kinase inhibition, Caliper screening (fluorescent substrate phosphorylation, electrophoretic separation)
VEGFR-2 = VEGFR-2 (Homo sapiens, UniProt P35968); test: VEGFR-2 kinase inhibition, Caliper screening (fluorescent substrate phosphorylation, electrophoretic separation)
c-Kit = c-Kit (Homo sapiens, UniProt P10721); test: c-Kit tyrosine kinase inhibition, Caliper screening (fluorescent substrate phosphorylation, electrophoretic separation); assay type: biochemical
c-Kit, sequence (P10721 26-976): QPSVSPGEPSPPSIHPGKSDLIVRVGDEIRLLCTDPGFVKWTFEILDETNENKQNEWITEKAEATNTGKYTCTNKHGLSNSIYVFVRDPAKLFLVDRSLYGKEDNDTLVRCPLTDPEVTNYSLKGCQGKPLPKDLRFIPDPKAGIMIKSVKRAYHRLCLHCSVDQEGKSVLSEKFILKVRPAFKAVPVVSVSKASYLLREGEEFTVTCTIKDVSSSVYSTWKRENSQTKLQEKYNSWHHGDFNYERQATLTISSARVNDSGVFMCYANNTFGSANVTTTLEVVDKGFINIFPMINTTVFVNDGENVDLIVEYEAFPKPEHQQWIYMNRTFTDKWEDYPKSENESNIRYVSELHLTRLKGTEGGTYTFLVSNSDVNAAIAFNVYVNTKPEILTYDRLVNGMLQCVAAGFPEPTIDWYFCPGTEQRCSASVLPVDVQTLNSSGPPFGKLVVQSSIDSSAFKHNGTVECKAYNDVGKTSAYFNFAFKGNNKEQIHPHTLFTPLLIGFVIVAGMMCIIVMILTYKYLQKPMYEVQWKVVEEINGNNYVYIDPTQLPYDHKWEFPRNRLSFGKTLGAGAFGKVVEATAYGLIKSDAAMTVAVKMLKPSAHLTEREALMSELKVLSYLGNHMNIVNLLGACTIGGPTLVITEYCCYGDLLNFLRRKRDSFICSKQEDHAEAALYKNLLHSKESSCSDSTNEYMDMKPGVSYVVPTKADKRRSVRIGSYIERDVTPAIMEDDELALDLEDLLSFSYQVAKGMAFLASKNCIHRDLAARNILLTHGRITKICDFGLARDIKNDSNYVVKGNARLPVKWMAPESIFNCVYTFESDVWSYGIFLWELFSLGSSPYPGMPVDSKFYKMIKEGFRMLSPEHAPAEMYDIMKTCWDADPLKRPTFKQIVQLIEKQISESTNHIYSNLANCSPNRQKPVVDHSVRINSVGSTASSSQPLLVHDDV

[1] = concentration 1.0E−05 (unit not given)
[2] = concentration 1.0E−06 (unit not given)
[3] = concentration 1.0E−07 (unit not given)
[4] = concentration 1.0E−08 (unit not given)
[5] = concentration 1.0E−09 (unit not given)
[6] = concentration 1.0E−10 (unit not given)
[7] = concentration 3.0E−05 (unit not given)
[8] = concentration 3.0E−06 (unit not given)
[9] = concentration 3.0E−07 (unit not given)
[10] = concentration 3.0E−08 (unit not given)
[11] = concentration 3.0E−09 (unit not given)
[12] = concentration 3.0E−10 (unit not given)
[13] = fold of IC50 relative to sunitinib

VEGFR-2, sequence (P35968 20-1356, species assumed): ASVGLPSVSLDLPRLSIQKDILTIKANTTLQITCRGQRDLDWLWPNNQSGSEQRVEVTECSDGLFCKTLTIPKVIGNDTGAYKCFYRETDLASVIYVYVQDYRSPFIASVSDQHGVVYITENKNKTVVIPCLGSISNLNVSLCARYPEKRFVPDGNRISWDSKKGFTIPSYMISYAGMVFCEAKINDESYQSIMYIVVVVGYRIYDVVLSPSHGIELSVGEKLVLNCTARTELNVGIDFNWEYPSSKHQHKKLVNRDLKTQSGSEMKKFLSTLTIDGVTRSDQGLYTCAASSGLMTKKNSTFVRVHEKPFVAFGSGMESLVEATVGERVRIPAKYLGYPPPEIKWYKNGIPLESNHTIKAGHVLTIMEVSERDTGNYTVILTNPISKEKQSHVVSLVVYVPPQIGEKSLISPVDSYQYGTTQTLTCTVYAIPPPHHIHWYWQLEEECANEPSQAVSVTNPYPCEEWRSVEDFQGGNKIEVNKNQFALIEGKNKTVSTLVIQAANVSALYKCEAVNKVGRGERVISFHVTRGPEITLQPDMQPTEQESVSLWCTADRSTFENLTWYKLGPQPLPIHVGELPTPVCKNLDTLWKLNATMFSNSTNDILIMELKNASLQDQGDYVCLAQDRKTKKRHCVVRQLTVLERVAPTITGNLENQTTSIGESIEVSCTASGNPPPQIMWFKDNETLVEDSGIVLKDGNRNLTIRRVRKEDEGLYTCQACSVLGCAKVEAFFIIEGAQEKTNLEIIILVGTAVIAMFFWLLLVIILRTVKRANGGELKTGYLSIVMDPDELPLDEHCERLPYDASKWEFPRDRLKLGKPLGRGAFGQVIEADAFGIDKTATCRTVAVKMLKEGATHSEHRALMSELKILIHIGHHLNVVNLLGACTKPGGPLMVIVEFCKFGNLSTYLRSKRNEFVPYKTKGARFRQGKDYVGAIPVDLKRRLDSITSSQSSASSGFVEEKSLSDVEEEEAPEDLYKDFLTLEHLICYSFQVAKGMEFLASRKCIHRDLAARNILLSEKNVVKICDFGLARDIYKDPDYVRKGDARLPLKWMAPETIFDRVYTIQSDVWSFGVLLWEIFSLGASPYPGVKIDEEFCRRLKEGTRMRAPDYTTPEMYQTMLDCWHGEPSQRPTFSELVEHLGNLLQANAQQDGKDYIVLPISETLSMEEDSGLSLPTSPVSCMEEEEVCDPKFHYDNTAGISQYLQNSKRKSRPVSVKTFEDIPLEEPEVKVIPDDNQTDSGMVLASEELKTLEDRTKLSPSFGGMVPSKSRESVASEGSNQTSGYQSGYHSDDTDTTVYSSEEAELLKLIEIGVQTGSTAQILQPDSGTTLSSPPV
RET, sequence (P07949 29-1114, species assumed): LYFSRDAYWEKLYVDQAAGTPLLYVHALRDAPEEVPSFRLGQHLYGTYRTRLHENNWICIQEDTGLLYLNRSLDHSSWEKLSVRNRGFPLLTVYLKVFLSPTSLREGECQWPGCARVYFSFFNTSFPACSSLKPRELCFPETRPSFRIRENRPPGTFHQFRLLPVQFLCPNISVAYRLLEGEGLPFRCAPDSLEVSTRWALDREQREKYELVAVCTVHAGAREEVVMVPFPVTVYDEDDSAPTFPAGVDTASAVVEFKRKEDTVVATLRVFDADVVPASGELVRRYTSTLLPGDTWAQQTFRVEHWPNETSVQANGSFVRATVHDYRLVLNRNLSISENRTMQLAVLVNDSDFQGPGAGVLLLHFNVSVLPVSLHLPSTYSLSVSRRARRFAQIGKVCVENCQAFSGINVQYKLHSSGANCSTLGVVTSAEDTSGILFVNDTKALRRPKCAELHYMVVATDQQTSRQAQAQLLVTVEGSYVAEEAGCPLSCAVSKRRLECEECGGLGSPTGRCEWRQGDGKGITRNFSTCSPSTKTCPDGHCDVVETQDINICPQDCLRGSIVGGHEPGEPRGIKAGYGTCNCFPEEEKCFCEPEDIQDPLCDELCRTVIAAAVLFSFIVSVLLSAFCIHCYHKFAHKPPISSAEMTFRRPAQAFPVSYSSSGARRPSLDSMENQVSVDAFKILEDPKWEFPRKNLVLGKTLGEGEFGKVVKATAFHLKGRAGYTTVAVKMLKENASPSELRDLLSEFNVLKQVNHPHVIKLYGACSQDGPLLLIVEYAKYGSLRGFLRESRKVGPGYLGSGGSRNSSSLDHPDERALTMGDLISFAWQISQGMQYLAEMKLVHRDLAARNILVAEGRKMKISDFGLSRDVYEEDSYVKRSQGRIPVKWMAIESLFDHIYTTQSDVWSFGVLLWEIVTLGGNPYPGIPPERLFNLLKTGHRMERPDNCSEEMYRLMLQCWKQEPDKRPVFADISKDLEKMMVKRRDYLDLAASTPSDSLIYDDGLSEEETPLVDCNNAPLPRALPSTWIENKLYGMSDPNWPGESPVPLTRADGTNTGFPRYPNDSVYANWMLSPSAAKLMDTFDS

COCCOCCOCCOCCOCCOCCOCCOCCOCCNC(=O)c1c(C)[nH]c(/C=C2\C(=O)Nc3ccc(F)cc32)c1C [mPEG9-semaxanib, (Z)-5-((5-fluoro-2-oxoindolin-3-ylidene)methyl)-2,4-dimethyl-1H-pyrrole-3-mPEG8-amide]
IC50 (RET): 870 nM | RET AVG % Activity at Specific Concentration (RET; [1]): 5% | RET AVG % Activity at Specific Concentration (RET; [2]): 49% | RET AVG % Activity at Specific Concentration (RET; [3]): 90% | RET AVG % Activity at Specific Concentration (RET; [4]): 105% | RET AVG % Activity at Specific Concentration (RET; [5]): 104% | RET AVG % Activity at Specific Concentration (RET; [6]): 100% | RET AVG % Activity at Specific Concentration (RET; [7]): 0% | RET AVG % Activity at Specific Concentration (RET; [8]): 21% | RET AVG % Activity at Specific Concentration (RET; [9]): 74% | RET AVG % Activity at Specific Concentration (RET; [10]): 96% | RET AVG % Activity at Specific Concentration (RET; [11]): 101% | RET AVG % Activity at Specific Concentration (RET; [12]): 97% | RET Fold (RET; [13]): 20.23 | IC50 (VEGFR-2): 300 nM | VEGFR-2 AVG % Activity at Specific Concentration (VEGFR-2; [1]): 1% | VEGFR-2 AVG % Activity at Specific Concentration (VEGFR-2; [2]): 20% | VEGFR-2 AVG % Activity at Specific Concentration (VEGFR-2; [3]): 61% | VEGFR-2 AVG % Activity at Specific Concentration (VEGFR-2; [4]): 77% | VEGFR-2 AVG % Activity at Specific Concentration (VEGFR-2; [5]): 84% | VEGFR-2 AVG % Activity at Specific Concentration (VEGFR-2; [6]): 89% | VEGFR-2 AVG % Activity at Specific Concentration (VEGFR-2; [7]): −1% | VEGFR-2 AVG % Activity at Specific Concentration (VEGFR-2; [8]): 8% | VEGFR-2 AVG % Activity at Specific Concentration (VEGFR-2; [9]): 46% | VEGFR-2 AVG % Activity at Specific Concentration (VEGFR-2; [10]): 71% | VEGFR-2 AVG % Activity at Specific Concentration (VEGFR-2; [11]): 84% | VEGFR-2 AVG % Activity at Specific Concentration (VEGFR-2; [12]): 84% | VEGFR-2 Fold (VEGFR-2; [13]): 6.12 | IC50 (c-Kit; averages of replicate wells): 390 nM | c-Kit AVG % Activity at Specific Concentration (c-Kit; [1]): 0% | c-Kit AVG % Activity at Specific Concentration (c-Kit; [2]): 16% | c-Kit AVG % Activity at Specific Concentration (c-Kit; [3]): 90% | c-Kit AVG % Activity at Specific Concentration (c-Kit; [4]): 102% | c-Kit AVG % Activity at Specific Concentration (c-Kit; [5]): 105% | c-Kit AVG % Activity at Specific Concentration (c-Kit; [6]): 95% | c-Kit AVG % Activity at Specific Concentration (c-Kit; [7]): −1% | c-Kit AVG % Activity at Specific Concentration (c-Kit; [8]): 2% | c-Kit AVG % Activity at Specific Concentration (c-Kit; [9]): 60% | c-Kit AVG % Activity at Specific Concentration (c-Kit; [10]): 100% | c-Kit AVG % Activity at Specific Concentration (c-Kit; [11]): 105% | c-Kit AVG % Activity at Specific Concentration (c-Kit; [12]): 102% | c-Kit Fold (c-Kit; [13]): 5.30
